Patent US8486991B2, “Enantiomerically pure phosphoindoles as HIV inhibitors” (Idenix Pharmaceuticals, Inc., priority 2006, dated 2013)
Values joined by “and” are separate entries in the source; they are usually repeats but may differ in a detail not shown here. Equal values may be shown once. Read-outs that look alike come from different tables or passages of the source.

Columns and labels:
HIV-1 BH10 W.T. = experiment: Anti-HIV-1 BH10 W.T. activity in presence of HS or AAG; type: cell-based; conditions: for Fold Change, 10% Fetal Bovine Serum / Fold Change, 45% Human Serum / Fold Change, 45% Human Serum + AAG / Fold Change, 10% Fetal Bovine Serum + AAG: Table 20; for Fold Change, 45% Human Serum / Fold Change, 45% Human Serum + AAG / Fold Change, 10% Fetal Bovine Serum + AAG: vs 10% FBS only
[1] = Cellular cytotoxicity, 4 days, six HIV-1 host cell lines (ranges); type: cell-based; conditions: human, read-out: Mean CC50 Range
Protocol: (§2) Cell viability was measured by standard MTT or MTS staining.
(§3) Following drug exposure for 4 days, cell viability was measured by MTS staining and CC50 values were determined. Drug concentrations ranged from 0.005 μM to 100 μM.

[2] = system: HIV-1 IIIB in MOLT-4 cells; experiment: Drug susceptibility assay, IIIB in MOLT-4 cells; type: cell-based; conditions: Human immunodeficiency virus 1, IIIB
Text: (§1) The virus and host-cell dependency of Compound I, Compound III and control drugs was further examined in drug susceptibility assays performed across 3 different subtype B wild-type HIV-1 strains and 5 different cell lines.

[3] = Cellular cytotoxicity, 4 days, MTS, H9; type: cell-based; conditions: human, Table 21, read-out: Average CC50 Values ± Standard Deviation, H9
Protocol: as §2, §3

[4] = Cellular cytotoxicity, 4 days, MTS, U937; type: cell-based; conditions: human, Table 21, read-out: Average CC50 Values ± Standard Deviation, U937
Protocol: as §2, §3

[5] = biological target: T1, human DNA polymerase gamma (Homo sapiens, UniProt P54098); experiment: Human cellular DNA polymerase gamma assay; type: biochemical
T1 sequence (P54098 1-1239): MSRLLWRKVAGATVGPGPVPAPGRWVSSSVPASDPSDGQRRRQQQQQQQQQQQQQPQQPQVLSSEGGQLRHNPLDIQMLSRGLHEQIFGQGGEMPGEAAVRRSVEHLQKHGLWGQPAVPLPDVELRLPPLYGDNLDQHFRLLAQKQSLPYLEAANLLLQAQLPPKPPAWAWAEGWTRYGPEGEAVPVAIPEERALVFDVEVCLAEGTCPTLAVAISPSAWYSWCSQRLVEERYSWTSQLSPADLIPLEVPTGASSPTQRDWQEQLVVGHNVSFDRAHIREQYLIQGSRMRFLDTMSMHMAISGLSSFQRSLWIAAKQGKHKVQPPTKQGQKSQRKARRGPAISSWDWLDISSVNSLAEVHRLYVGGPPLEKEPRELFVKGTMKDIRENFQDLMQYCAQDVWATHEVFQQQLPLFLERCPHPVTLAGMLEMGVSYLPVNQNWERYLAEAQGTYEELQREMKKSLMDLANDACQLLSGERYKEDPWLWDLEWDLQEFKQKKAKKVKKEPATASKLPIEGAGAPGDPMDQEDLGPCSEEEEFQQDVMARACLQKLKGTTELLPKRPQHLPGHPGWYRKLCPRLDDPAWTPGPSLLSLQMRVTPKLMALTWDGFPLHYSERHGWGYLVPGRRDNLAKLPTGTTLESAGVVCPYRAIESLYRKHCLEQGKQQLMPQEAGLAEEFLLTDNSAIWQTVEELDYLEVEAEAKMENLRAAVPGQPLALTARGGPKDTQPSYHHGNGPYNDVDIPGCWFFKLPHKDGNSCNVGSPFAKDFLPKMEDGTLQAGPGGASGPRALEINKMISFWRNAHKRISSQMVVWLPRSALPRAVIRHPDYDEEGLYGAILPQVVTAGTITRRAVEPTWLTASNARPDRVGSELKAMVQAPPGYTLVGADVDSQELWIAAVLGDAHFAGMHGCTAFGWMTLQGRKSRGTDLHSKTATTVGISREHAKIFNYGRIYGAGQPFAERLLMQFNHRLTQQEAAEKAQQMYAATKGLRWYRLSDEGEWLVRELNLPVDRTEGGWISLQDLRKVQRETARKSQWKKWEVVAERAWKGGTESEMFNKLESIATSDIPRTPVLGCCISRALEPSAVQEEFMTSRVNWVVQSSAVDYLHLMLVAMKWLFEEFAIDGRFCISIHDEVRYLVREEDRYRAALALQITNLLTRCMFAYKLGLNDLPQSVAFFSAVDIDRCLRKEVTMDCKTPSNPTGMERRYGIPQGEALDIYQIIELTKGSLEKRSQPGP
Text: HIV RT, like other viral polymerase, shares limited structural homology with the cellular DNA polymerases responsible for normal nuclear and mitochondrial DNA synthesis and repair. This raises the formal possibility that inhibitors of HIV RT might inhibit cellular polymerases, resulting in cellular toxicity. In particular, inhibition of polymerase gamma has the potential to result in mitochondrial toxicity. The ability of Compound I and Compound III to inhibit cellular DNA polymerases was assessed using standard in vitro assays (Table 5).

HIV-1 IIIB in H9 cells = experiment: Drug susceptibility assay, IIIB in H9 cells; type: cell-based; conditions: Human immunodeficiency virus 1, IIIB
Text: as §1

[6] = system: HIV-1 K103N clinical isolates 4937 and 5002; experiment: microbe, parasite or virus in culture; type: cell-based; conditions: Human immunodeficiency virus 1, PBMC, read-out: Average EC50 Values ± Standard Deviation, K103N
[7] = system: HIV-1 BH10 K103N mutant virus; experiment: microbe, parasite or virus in culture; type: cell-based; conditions: for Fold Change, K103N: Table 9, CPE
Protocol: The activity of the compounds was also assessed with the same virus and cell type using a different assay readout based on cytopathic effect (CPE).
MT-4 cells (Source: NIH Catalog #120) were seeded onto 96-well cell culture plates (1×10^4 cells per well in 50 μL).
The final DMSO concentration in the assay was 0.5% in 120 μL. Cell cultures were then incubated at 37° C./5% CO2 for 4 days. Then, Cell Titer 96 AQueous One Solution Cell Proliferation Assay (Promega) was used to measure cell viability. Briefly, the One Solution Reagent was added directly to culture wells (20 μL/well), incubated for 5 hours, and the absorbance was recorded at 492 nm using the Sunrise Tecan Spectrophotometer.
The EC50 values were determined from the percent inhibition versus concentration data using a sigmoidal non-linear regression analysis based on four parameters with Tecan Magellan software.

HIV-1 BH10 in U937 cells = experiment: Drug susceptibility assay, BH10 in U937 cells; type: cell-based
Text: as §1

[8] = Human immunodeficiency virus 1, MT4, read-out: Average EC50 Values ± Standard Deviation, K103N
[9] = Human immunodeficiency virus 1, MT4, read-out: EC50, K103N
[10] = Human immunodeficiency virus 1, Table 19, AAG 1 mg/ml, read-out: Average EC50 Values ± Standard Deviation, 10% Fetal Bovine Serum + AAG
[11] = Human immunodeficiency virus 1, Table 19, AAG 1 mg/ml, read-out: Average EC50 Values ± Standard Deviation, 45% Human Serum + AAG
[12] = Human immunodeficiency virus 1, Table 19, read-out: Average EC50 Values ± Standard Deviation, 10% Fetal Bovine Serum
[13] = Human immunodeficiency virus 1, Table 19, read-out: Average EC50 Values ± Standard Deviation, 45% Human Serum
[14] = Human immunodeficiency virus 1, text b887, read-out: mean EC50 values, 45% HS+AAG
[15] = MOLT-4, Table 17, read-out: Average EC50 Values ± Standard Deviation, host MOLT-4, virus IIIB
[16] = H9 cells (lymphoblastic T cells)
[17] = U-937 cells (monocytes derived from a histiocytic lymphoma)
[18] = Table 5, preliminary data from a single experiment, read-out: Average IC50 Values, DNA Pol Gamma
[19] = H9, Table 17, read-out: Average EC50 Values ± Standard Deviation, host H9, virus IIIB
[20] = Human immunodeficiency virus 1, U-937, Table 17, read-out: Average EC50 Values ± Standard Deviation, host U937, virus BH10

SMILES	Fold Change, 10% Fetal Bovine Serum (HIV-1 BH10 W.T.) [fold]	Fold Change, 45% Human Serum (HIV-1 BH10 W.T.) [fold]	Fold Change, 45% Human Serum + AAG (HIV-1 BH10 W.T.)	CC50 at 4 days [1] [nM]	EC50 [6] [nM]	EC50 [7, 8] [nM]	EC50 [7, 9] [nM]	Fold Change, K103N [7] [fold]	EC50 (HIV-1 BH10 W.T.; [10]) [nM]	EC50 (HIV-1 BH10 W.T.; [11]) [nM]	EC50 (HIV-1 BH10 W.T.; [12]) [nM]	EC50 (HIV-1 BH10 W.T.; [13]) [nM]	EC50 (HIV-1 BH10 W.T.; [14]) [nM]	EC50 [2, 15] [nM]	CC50 at 4 days [3, 16] [nM]	CC50 at 4 days [4, 17] [nM]	IC50 [5, 18]	EC50 (HIV-1 IIIB in H9 cells; [19]) [nM]	EC50 (HIV-1 BH10 in U937 cells; [20]) [nM]	further results
CO[P@](=O)(c1cc(C)cc(/C=C/C#N)c1)c1c(C(N)=O)[nH]c2ccc(Cl)c(F)c12 [Compound I, (2-Carbamoyl-5-chloro-4-fluoro-1H-indol-3-yl)-[3-((E)-2-cyano-vinyl)-5-methyl-phenyl]-(R)-phosphinic acid methyl ester]	1	15.9 ± 11.1	24.8 fold and 19.5 fold	16600 to 32900	0.7 ± 0.3	0.3 ± 0.1	0.26 ± 0.057	1.0 ± 0.3												EC50 (HIV-1 BH10 W.T.; Human immunodeficiency virus 1, read-out: Average EC50 Values ± Standard Deviation, 10% Fetal Bovine Serum): 1.1 ± 0.4 nM; EC50 (HIV-1 BH10 W.T.; Human immunodeficiency virus 1, read-out: Average EC50 Values ± Standard Deviation, 10% Fetal Bovine Serum + AAG): 2.9 ± 1.2 nM; EC50 (HIV-1 BH10 W.T.; Human immunodeficiency virus 1, read-out: Average EC50 Values ± Standard Deviation, 45% Human Serum): 14.6 ± 6.3 nM; EC50 (HIV-1 BH10 W.T.; Human immunodeficiency virus 1, read-out: Average EC50 Values ± Standard Deviation, 45% Human Serum + AAG): 19 ± 1.7 nM; EC50 (HIV-1 BH10 W.T.; Human immunodeficiency virus 1, read-out: mean EC50 values, 45% HS+AAG): 19 nM; Fold Change, 10% Fetal Bovine Serum + AAG (HIV-1 BH10 W.T.; listed as Cmpd I): 2.7 ± 0.7 fold; Fold Change, 45% Human Serum + AAG (HIV-1 BH10 W.T.; listed as Cmpd I): 19.5 ± 7.6 fold; EC50 ([2]; MOLT-4, read-out: Average EC50 Values ± Standard Deviation, host MOLT-4, virus IIIB): 0.7 ± 0.1 nM; CC50 at 4 days [3]: 20000 ± 1600 nM; CC50 at 4 days [4]: 26500 ± 500 nM; IC50 ([5]; Average IC50 Values, DNA Pol Gamma, Table 5, preliminary data from a single experiment): 118000 nM; IC50 ([5]; Mean IC50 Values ± Standard Deviation, DNA Pol Gamma, Table 6, N=4): 118000 nM; EC50 (HIV-1 IIIB in H9 cells; H9, read-out: Average EC50 Values ± Standard Deviation, host H9, virus IIIB): 0.6 ± 0.1 nM; EC50 (HIV-1 BH10 in U937 cells; Human immunodeficiency virus 1, U-937, read-out: Average EC50 Values ± Standard Deviation, host U937, virus BH10): 0.6 ± 0.2 nM
CO[P@](=O)(c1cc(C)cc(/C=C/C#N)c1)c1c(C(N)=O)[nH]c2ccc(Cl)cc12 [Compound III, (2-Carbamoyl-5-chloro-1H-indol-3-yl)-[3-((E)-2-cyano-vinyl)-5-methyl-phenyl]-(R)-phosphinic acid methyl ester]	1	17.0 ± 6.3	19.5 fold and 24.8 fold	14800 to 50000	0.9 ± 0.4	0.1 ± 0.1	0.14 ± 0.052	1.1 ± 0.3	2.8 ± 0.4	32.6 ± 7.3	1.2 ± 0.4	21.9 ± 11.7	32.6	0.6 ± 0.1	31300 ± 5200	24600 ± 1900	≥ 60000 nM and 60100 nM	0.5 ± 0.2	1.3 ± 0.6	Fold Change, 10% Fetal Bovine Serum + AAG (HIV-1 BH10 W.T.; listed as Cmpd III): 2.1 ± 0.5 fold; Fold Change, 45% Human Serum + AAG (HIV-1 BH10 W.T.; listed as Cmpd III): 24.8 ± 3.8 fold
O=C1Nc2ccc(Cl)cc2C(C#CC2CC2)(C(F)(F)F)O1 (stereo not shown) [EFV, 6-chloro-4-cyclopropylethynyl-4-trifluoromethyl-1,4-dihydro-2H-3,1-benzoxazin-2-one, reference compound]				23200 to 51000	41.4 ± 36.9	41 ± 13			5 ± 2.3	11.6 ± 7.4	1.6 ± 0.5	11.5 ± 3.9	11.6	0.9 ± 0.2	50000 ± 9000	23200 ± 1000	116000 nM	1.5 ± 0.6	1.9 ± 0.8	IC50 ([5]; Table 6, N=4, read-out: Mean IC50 Values ± Standard Deviation, DNA Pol Gamma): ≥ 100000 nM
